Experimental data reported in patent US20070059720A9 (priority 2004, published 2007).
Where two headings read alike, the source gives them in different places.

Legend:
[1] = test system: MCF-7 vector control cells; assay: Anchorage-independent soft agar colony formation, MCF-7 vector control cells; assay type: cell-based, human; conditions: vector control cells; 100 nM OHT plus 10 nM ICI or 20 nM PD98065
Experimental: (§1) Cells were starved for 2 days in PRF MEM (InVitrogen) supplemented with 5% fetal bovine serum (FBS, Summit Biotechnology, Fort Collins, Colo.), 6 ng/ml insulin, 200 units/ml penicillin, and 200 μg/ml streptomycin. Soft agar assays were performed in sixwell plates. Into each well, 1.5 ml of prewarmed (50° C.) 0.7% SeaPlaque agarose (FMC, Rockland, Me.) was added and dissolved in PRF MEM supplemented with 5% charcoal stripped FBS (Summit, Fort Collins, Colo.) to serve as the bottom layer, and allowed to solidify at 4° C. until to use. 0.5×10^4 cells as a single cell suspension were suspended in prewarmed (37° C.) of the same media, 4 ml of 0.5% SeaPlaque agarose was then added, and this suspension then plated as the top layer by adding it dropwise to the solidified bottom layer plates. Plates were cooled for 2 hours, and then transferred to a 37° C. humidified incubator. Two days after plating, media containing control vehicle, 1 nM estradiol, 100 nM 4-OH-Tam, 100 nM OHT plus 10 nM ICI, or 100 nM OHT plus 20 nM […] was added to the top cell layer, and the appropriate media was replaced every two days. After 14 days, the colonies were fixed, and the colony number of colonies >50 cells from quadruplicate assays were then counted. The data shown is the mean colony number of four plates, and is representative of two independent experiments.
(§2) In pancreatic cells, ectopic expression of MKP3 is reported to result in a suppression of cell growth (Fuqua et al., 2003). Thus, the growth characteristics of the MCF-7 stable MKP3 transfectants under different hormonal conditions were investigated using anchorageindependent soft agar assay (FIG. 4B).

MCF-7-MKP3 cells = assay: Anchorage-independent soft agar colony formation, MKP3-overexpressing MCF-7 transfectants; assay type: cell-based, human; conditions: MKP3-transfected cells; 100 nM OHT plus 10 nM ICI or 20 nM
Experimental: MCF-7 cells were originally obtained from Dr. Benita Katzenellebogen, but have been maintained in the inventors' laboratory for over 10 years (Fuqua et al., 2000). MCF-7 cells were maintained in Minimal Essential Medium (MEM, InVitrogen) supplemented with 5% fetal bovine serum (Summit Biotechnology, Fort Collins, Colo.), 200 U/ml penicillin, and 200 μg/ml streptomycin. Cells were incubated at 37° C. in 5% CO2. To generate MCF-7 cells stably overexpressing MKP3, 5 μg of the plasmid pcDNA3-MKP3-V5 (Furukawa et al., 2003) or empty vector (pcDNA3-His-V5, InVitrogen), were transfected into the cells using Fugene 6 reagent Roche Clinical Laboratories, Indianapolis, Ind.) in 100 mm tissue culture dishes following the manufacturer's protocol. Stable clones overexpressing MKP3 were selected as described (Fuqua et al., 2000), and positive clones were identified using immunoblot analysis with an anti-V5 antibody (1:5000 dilution)
as §1, §2

TR breast cancer = conditions: second-line therapy; cited from earlier work
ERK 1,2 MAPK = assay: Immunoblot of phospho-MAPK in MCF-7 transfectants; assay type: cell-based, human
Experimental: (§3) Cells grown in 100 mm dishes were starved in phenol red-free (PRF), serum-free MEM (Specialty Media, Phillipsburg, N.J.) for 48 hours, and were then treated for 2 hours with vehicle (ethanol), estrogen (100 nM, 20), or OHT (100 nM). After treatment, cells were rinsed twice with ice-cold phosphate-buffered saline (PBS) and were then lysed immediately with 200 μl of cell lysis buffer (20 mM Tris HCl, pH 7.4, 150 mM NaCl, 1 mM B-glycerophosphate, 1 mM sodium orthovanadate, and 10% glycerol plus 1:100 proteinase inhibitor cocktail III) (Calbiochem, LaJolla, Calif.) per 100 mm tissue culture. The cell lysates were cleared by centrifugation at 16,100×g for 10 minutes at 4° C. Protein concentration was determined with the BCA Protein Assay kit (Pierce, Rockfold, Ill.) according to the manufacturer's directions. Equal amount of cell extracts were resolved under denaturing conditions by electrophoresis in 8-10% polyacrylamide gels containing sodium dodecyl sulfate (SDS-PAGE), and transferred to nitrocellulose membranes by electroblotting (Schleicher & Schuell, Keene, NH). After blocking of the transferred nitrocellulose membrane with TBST (20 mM Tris pH 7.6, 150 mM NaCl, 0.1% Tween-20) supplemented with 5% non-fat milk for 1 hour at room temperature, the membrane was incubated with primary antibodies either for 1 hour at room temperature (anti-ERα, 1:100 dilution; anti-AIB1, 1:100 dilution; anti-ERK2, 1:500 dilution; anti-Cyclin D1,1:500 dilution; anti-PR, C-19, 1:200 dilution; anti-p190, 1:1000 dilution; anti-V5, 1:5000 dilution), or overnight at 4° C. (anti-phospho MAPK, 1:1000 dilution; anti-phosphor-Ser118-ERα; 1:1000 dilution; MAPK p42/44, 1:1000 dilution), incubated with secondary antibodies for 1 hour at room temperature and then developed with Enhanced Chemiluminescence Reagents (Amersham Pharmacia Biotech, Piscataway, N.J.).
MAPK activity is tightly regulated by phosphorylation and dephosphorylation. MKP3 participates in a bidirectional regulatory loop with ERK2 MAPK, whereby ERK2 substrate binding is associated with catalytic activation of MKP3, and activated MKP3 negatively regulates pERK2 (Camps et al., 1998). […] Immunoblot analysis with anti-V5 was used to detect ectopic MKP3 expression in the two MKP3 transfectants (FIG. 5A, top panel). FIGS. 5B and 5C provide quantitation of results in FIG. 5A.

ERα = assay: Immunoblot of phospho-S118 ERα and total ERα in MCF-7 transfectants; assay type: cell-based, human; conditions: control and Tam-treated MKP3.2 cells
Experimental: as §3

JNK = assay: Immunoblot of phospho-JNK in MCF-7 transfectants; assay type: cell-based, human; conditions: vector control cells treated with the inhibitor
Experimental: (§4) Cells grown in 100 mm dishes were starved in phenol red-free (PRF), serum-free MEM (Specialty Media, Phillipsburg, N.J.) for 48 hours, and were then treated for 2 hours with vehicle (ethanol), estrogen (100 nM, 20), or OHT (100 nM). After treatment, cells were rinsed twice with ice-cold phosphate-buffered saline (PBS) and were then lysed immediately with 200 μl of cell lysis buffer (20 mM Tris HCl, pH 7.4, 150 mM NaCl, 1 mM B-glycerophosphate, 1 mM sodium orthovanadate, and 10% glycerol plus 1:100 proteinase inhibitor cocktail III) (Calbiochem, LaJolla, Calif.) per 100 mm tissue culture. The cell lysates were cleared by centrifugation at 16,100×g for 10 minutes at 4° C. Protein concentration was determined with the BCA Protein Assay kit (Pierce, Rockfold, Ill.) according to the manufacturer's directions. Equal amount of cell extracts were resolved under denaturing conditions by electrophoresis in 8-10% polyacrylamide gels containing sodium dodecyl sulfate (SDS-PAGE), and transferred to nitrocellulose membranes by electroblotting (Schleicher & Schuell, Keene, NH). […]

cyclin D1 (CCND1) = assay: Immunoblot of CCND1 in MCF-7 transfectants; assay type: cell-based, human; conditions: MKP3 overexpressing cells
Experimental: as §4
(§5) As expected with two hours of estrogen treatment, no induction of the two PR isoforms were detected in either the control vector (Con 1 and 2), or in the MKP3-transfected cells (FIG. 11A). […]

[2] = test system: progesterone receptor (PR) A and B forms; assay: Immunoblot of PR-A and PR-B in MCF-7 transfectants; assay type: cell-based, human; conditions: MKP3 overexpressing cells
Experimental: as §3, §5

breast cancer = conditions: cited from earlier work

Compound | effect on Tam-induced colony formation [1] | effect on Tam-induced colony formation (MCF-7-MKP3 cells) | share of TR breast cancer patients who respond (TR breast cancer) | effect on the increase in pMAPK (ERK 1,2 MAPK; control and Tam-treated MKP3.2 cells) | effect on activation of MAPK (ERK 1,2 MAPK; vector control cells, all treatment conditions) | effect on the increase in pS118 ERα (ERα) | pJNK level (JNK) | effect on tamoxifen induction of CCND1 (cyclin D1 (CCND1)) | effect on PR-B levels in Tam-treated cells [2] | benefit compared to tamoxifen (breast cancer; ER+/PR+ group) | benefit compared to tamoxifen (breast cancer; ER+/PR− subgroup)
C[C@]12CC[C@@H]3c4ccc(O)cc4C[C@@H](CCCCCCCCC[S+]([O-])CCCC(F)(F)C(F)(F)F)[C@H]3[C@@H]1CC[C@@H]2O (stereo partly shown) [ICI182,780] | completely blocked | completely blocked | About two-thirds | – | – | – | – | – | – | – | –
COc1cccc(-c2cc(=O)c3ccccc3o2)c1N [PD98059] | completely blocked | completely blocked | – | effectively inhibited | blocked activation of MAPK | effectively inhibited | elevated | blocked | restored | – | –
CC(C)(C#N)c1cc(Cn2cncn2)cc(C(C)(C)C#N)c1 [anastrazole] | – | – | – | – | – | – | – | – | – | modest advantage | major benefit
